From US6696470B2, “Pyridylthiophene compounds” (Pfizer Inc., priority 1997, dated 2004) come the findings set out here.

By melting point is commonly meant the temperature of the solid-liquid transition. As for `Cc1c(-c2ccncc2)sc(-c2ccncc2)c1C=NO.Cl.Cl`, the melting point was 258 to 261 °C (dec.). As for `CC(=O)c1cc(-c2ccncc2)sc1N(C)Cc1ccccc1.Cl`, the figure is 199 to 202 °C. With `CC(=O)c1cc(-c2ccncc2)sc1Oc1cccc(Oc2ccc(F)cc2)c1.Cl` the figure was 251 to 253 °C; with `CCOC(=O)CCc1cc(-c2ccncc2)sc1-c1ccncc1.Cl.Cl`, 205 to 208 °C (dec.). For the compound `Cc1c(-c2ccncc2)sc(-c2ccncc2)c1CNO.Cl.Cl.Cl`, the melting point is 219 to 222 °C (dec.). With `CC(=O)c1c(CC(C)C)oc(-c2ccncc2)c1C.Cl` the figure was 171 to 174 °C; with `CC(=O)c1c(C)oc(-c2ccncc2)c1C` [Example 1, 3-Acetyl-2,4-dimethyl-5-(4-pyridyl)furan], 65 to 66.5 °C. As for `Cc1c(-c2ccncc2)oc2c1C(=O)CCC2` [Example 2, 3-Methyl-4-oxo-2-(4-pyridyl)-4,5,6,7-tetrahydrobenzofuran], the figure is 136 to 138 °C. As for `CC(=O)c1c(-c2ccccc2)oc(-c2ccncc2)c1C` [Example 3, 3-Acetyl-4-methyl-2-phenyl-5-(4-pyridyl)furan], the figure is 108 to 110 °C; as for `Cc1c(-c2ccncc2)oc2c1C(=O)C(C)(C)CC2` [Example 6, 4-Oxo-2-(4-pyridyl)-3,5,5-trimethyl-4,5,6,7-tetrahydrobenzofuran], 133 to 134 °C. `Cc1c(-c2ccncc2)oc2c1C(=O)CCC2(C)C` [Example 7, 4-Oxo-2-(4-pyridyl)-3,7,7-trimethyl-4,5,6,7-tetrahydrobenzofuran] had a melting point of 138 to 140 °C. Take `Cc1c(-c2ccncc2)oc2c1C(=O)OC(C)C2` (stereo not shown) [Example 10, 6,7-Dihydro-3,6-dimethyl-2-(4-pyridyl)-furo[3,2-c]pyran-4-one]: the melting point fell in the range of 157 to 160 °C. As for `CCc1c(-c2ccncc2)oc2c1C(=O)CCC2(C)C` [Example 11, 3-Ethyl-7,7-dimethyl-4-oxo-2-(4-pyridyl)-4,5,6,7-tetrahydrobenzofuran], the figure is 86 to 88 °C. As for `CC1(C)CCC(=O)c2c1oc(-c1ccncc1)c2-c1ccccc1` [Example 12, 7,7-Dimethyl-3-phenyl-4-oxo-2-(4-pyridyl)4,5,6,7-tetrahydrobenzofuran], the figure is 156 to 157 °C; as for `CC(=O)c1sc(-c2ccncc2)c(C)c1-c1ccncc1` [Example 13, 2-Acetyl-4-methyl-3,5-di(4-pyridyl)thiophene], 117 to 118 °C; as for `CC(=O)c1sc(-c2ccncc2)c(-c2ccncc2)c1C` [Example 14, 2-Acetyl-3-methyl-4,5-di(4-pyridyl)thiophene], 140 to 142 °C.

`CC(=O)c1c(-c2ccncc2)sc(-c2ccncc2)c1C` [Example 15, 3-Acetyl-4-methyl-2,5-di(4-pyridyl)thiophene] yielded a melting point of 137 to 138 °C.

Turning to `O=C1CCCc2sc(-c3ccncc3)cc21` [Example 16, 4-Oxo-2-(4-pyridyl)-4,5,6,7-tetrahydro-benzo(b)thiophene], the melting point is 156 to 158 °C. As for `CC(=O)c1c(-c2ccncc2)sc(Cl)c1C` [Example 17, 3-Acetyl-5-chloro-4-methyl-2-(4-pyridyl)thiophene], the figure is 60 to 61 °C. As for `CC(=O)c1c(C)sc(-c2ccncc2)c1C` [Example 18, 3-Acetyl-2,4-dimethyl-5-(4-pyridyl)thiophene], the figure is 80 to 81 °C; as for `CC(=O)c1c(-c2ccccc2)sc(-c2ccncc2)c1C` [Example 19, 3-Acetyl-4-methyl-2-phenyl-5-(4-pyridyl)thiophene], 111 to 112 °C. In the case of `Cc1c(-c2ccncc2)sc2c1C(=O)CCC2` [Example 20, 3-Methyl-4-oxo-2-(4-pyridyl)4,5,6,7-tetrahydrobenzothiophene], the melting point was 129 to 130 °C. As for `Cc1c(-c2ccncc2)sc(-c2ccncc2)c1C(C)O` (stereo not shown) [Example 21, 2,5-Di(4-pyridyl)-3-(1-hydroxyethyl)-4-methylthiophene], the figure is 155 to 157 °C; as for `O=C1CCc2c(-c3ccncc3)sc(-c3ccncc3)c21` [Example 22, 1,3-Di(4-pyridyl)-5,6-dihydro-4H-cyclopenta(c)thiophen-4-one], 168 to 170 °C. Compound `COC(=O)c1cc(-c2ccncc2)sc1-c1ccncc1` [Example 23, 2,5-Di(4-pyridyl)-3-methoxycarbonylthiophene] registered a melting point of 133 to 135 °C.

As to `CC(=O)c1cc(-c2ccncc2)sc1-c1ccncc1` [Example 24, 3-Acetyl-2,5-di(4-pyridyl)thiophene], the melting point was in the range of 117 to 119 °C.

On to `O=S(=O)(c1cc(-c2ccncc2)sc1-c1ccncc1)N1CCCC1` [Example 25, 2,5-Di(4-pyridyl)-3-(pyrrolidine-1-sulfonyl)thiophene], for which the melting point lay within 193 to 195 °C.

`CC(=O)c1csc(-c2ccncc2)c1C` [Example 27, 4-Acetyl-3-methyl-2-(4-pyridyl)thiophene] had a melting point of 87 to 87.5 °C.

Regarding `N#Cc1cc(-c2ccncc2)sc1-c1ccncc1` [Example 29, 3-Cyano-2,5-di(4-pyridyl)thiophene], the melting point lay in the range of 205 to 207 °C. With `CC(=O)c1c(-c2ccc(F)cc2)sc(-c2ccncc2)c1C` [Example 32, 3-Acetyl-2-(4-fluorophenyl)-4-methyl-5-(4-pyridyl)thiophene] the figure was 116 to 118 °C; with `O=C(c1ccccc1)c1cc(-c2ccncc2)sc1-c1ccncc1` [Example 33, 3-Benzoyl-2,5-di(4-pyridyl)thiophene], 168 to 170 °C. As for `Cc1c(-c2ccncc2)sc(-c2ccncc2)c1C=O` [Example 34, 2,5-Di(4-pyridyl)-4-methylthiophene-3-carbaldehyde], the figure is 139 to 139.5 °C; as for `CC(=O)c1c(-c2ccsc2)sc(-c2ccncc2)c1C` [Example 35, 3-Acetyl-4-methyl-5-(4-pyridyl)-2-(3-thienyl)thiophene], 98 to 100 °C; as for `CSc1ccc(-c2sc(-c3ccncc3)c(C)c2C(C)=O)cc1` [Example 36, 3-Acetyl-4-methyl-5-(4-pyridyl)-2-(4-methylthiophenyl)thiophene], 106 to 108 °C. As for `CC(=O)c1cc(-c2ccncc2)sc1N1CCN(C)CC1` [Example 38, 3-Acetyl-2-(4-methylpiperazin-1-yl)-5-(4-pyridyl)thiophene], the figure is 115 to 117 °C; as for `O=C1CCCc2c(-c3ccncc3)sc(-c3ccncc3)c21` [Example 41, 1,3-Di(4-pyridyl)-4,5,6,7-tetrahydrobenzo(c)thiophen-4-one], 157 to 160 °C. On to `CC(=O)c1cc(-c2ccncc2)sc1Oc1ccccc1` [Example 42, 3-Acetyl-2-phenoxy-5-(4-pyridyl)thiophene], for which the melting point lay in the range of 103 to 105 °C.

`CC(=O)c1sc2sc(-c3ccncc3)c(C)c2c1C` [Example 43, 2-Acetyl-3,4-dimethyl-5-(4-pyridyl)thieno[2,3-b]thiophene]: the melting point fell in the range of 171 to 173 °C. With `O=C1CCCc2c(Cl)sc(-c3ccncc3)c21` [Example 45, 1-Chloro-3-(4-pyridyl)-4,5,6,7-tetrahydrobenzo(c)thiophen-4-one] the figure was 93 to 95 °C.

On to `CSc1sc(-c2ccncc2)c2c1C(=O)CCC2` [Example 47, 3-Methylthio-1-(4-pyridyl)-4,5,6,7-tetrahydrobenzo(c)thiophen-4-one], for which the melting point fell in the range of 115 to 116 °C.

Take `CN(C)C(=O)CCc1cc(-c2ccncc2)sc1-c1ccncc1` [Example 49, N,N-Dimethyl-3-[2,5-di-(4-pyridyl)3-thienyl]propionamide]: the melting point lay in the range of 166.5 to 167 °C.

The compound `CNC(=O)c1cc(-c2ccncc2)sc1-c1ccncc1` [Example 52, N-Methyl-{2,5-di(4-pyridyl)thiophen-3-yl}carboxamide] came in with a melting point of 197 to 199 °C. As for `O=C1CCc2c(-c3ccncc3)sc(-c3ccccc3F)c21` [Example 53, 3-(2-Fluorophenyl)-1-(4-pyridyl)-5,6-dihydro-4H-cyclopenta(c)thiophene-4-one], the figure is 133 to 135 °C. The compound `O=C1CCc2c(Cl)sc(-c3ccncc3)c21` [Example 54, 1-Chloro-3-(4-pyridyl)-5,6-dihydro-4H-cyclopenta(c)thiophene-4-one] registered a melting point of 163 to 165 °C.

`CC(=O)c1cc(-c2ccncc2)sc1Oc1ccccc1F` [Example 56, 3-Acetyl-2-(2-fluorophenoxy)-5-(4-pyridyl)thiophene] displayed a melting point of 93 to 96 °C. As for `CC(=O)c1cc(-c2ccncc2)sc1Oc1cc(F)ccc1F` [Example 57, 3-Acetyl-2-(2,5-difluorophenoxy)-5-(4-pyridyl)thiophene], the figure is 119 to 121 °C; as for `O=C1CCc2c(-c3ccncc3)sc(-c3ccc(F)cc3)c21` [Example 58, 3-(4-Fluorophenyl)-1-(4-pyridyl)-5,6-dihydro-4H-cyclopenta(c)thiophene-4-one], 193 to 195 °C. As for `NC(=O)c1cc(-c2ccncc2)sc1-c1ccncc1` [Example 59, 2,5-Di(4-pyridyl)-3-thiophenecarboxamide], the figure is 240 to 242 °C; as for `CC(C)OC(=O)c1cc(-c2ccncc2)sc1-c1ccncc1` [Example 60, 3-(Isopropyloxycarbonyl)-2,5-di(4-pyridyl)thiophene], 139 to 142 °C.

In the case of `CC(=O)c1cc(-c2ccncc2)sc1Oc1ccc(F)cc1` [Example 62, 3-Acetyl-2-(4-fluorophenoxy)-5-(4-pyridyl)thiophene], the melting point fell in the range of 147 to 149 °C. As for `O=C1CCc2c(-c3ccncc3)sc(-c3cccnc3)c21` [Example 63, 1-(4-Pyridyl)-3-(3-pyridyl)-5,6-dihydro-4H-cyclopenta(c)thiophene-4-one], the figure is 214 to 216 °C. For `Cc1c(-c2ccncc2)sc(-c2ccncc2)c1CF` [Example 65, 2,5-Di(4-pyridyl)-3-fluoromethyl-4-methylthiophene], the melting point is 148 to 148.5 °C.
